Assays:
[1] = target: T1, M3 muscarinic receptor subtype (hM3) (Homo sapiens, UniProt P20309); assay: Radioligand binding assay ([3H]-NMS displacement); conditions: CHO cell membranes, tested in this or a similar assay
T1 construct: expressed in transfected cells
Protocol: CHO cell lines stably expressing cloned human hM1, hM2, hM3 and hM4 muscarinic receptor subtypes, respectively, were grown to near confluency in medium consisting of HAM's F-12 supplemented with 10% FBS and 250 μg/mL Geneticin. The cells were grown in a 5% CO2, 37° C. incubator and lifted with 2 mM EDTA in DPBS. Cells were collected by 5 minute centrifugation at 650×g, and cell pellets were either stored frozen at −80° C. or membranes were prepared immediately. For membrane preparation, cell pellets were resuspended in lysis buffer and homogenized with a Polytron PT-2100 tissue disrupter (Kinematica AG; 20 seconds×2 bursts). Crude membranes were centrifuged at 40,000×g for 15 minutes at 4° C. […] The protein concentration of the membrane suspension was determined by the method described in Lowry, O. et al., Journal of Biochemistry 193:265 (1951). […]
Radioligand binding assays were performed in 96-well microtiter plates in a total assay volume of 100 μL. […] Filter plates were rinsed three times with wash buffer (10 mM HEPES) to remove unbound radioactivity. […] The plates were then counted in a PerkinElmer Topcount liquid scintillation counter (PerkinElmer Inc., Wellesley, Mass.). Binding data were analyzed by nonlinear regression analysis with the GraphPad Prism Software package (GraphPad Software, Inc., San Diego, Calif.) using the one-site competition model. […]

[2] = target: T2, hM2 receptor (CHO-K1 cells) (Homo sapiens, UniProt P08172); assay: Blockade of agonist-mediated inhibition of cAMP accumulation; assay type: cell-based; conditions: CHO-K1 cells expressing the hM2 receptor; this or a similar assay; read-out: Ki value for blockade of oxotremorine-inhibition of forskolin-mediated cAMP accumulation
T2 construct: expressed in transfected cells; host or cells: CHO-K1 cells
T2 sequence (P08172 1-466): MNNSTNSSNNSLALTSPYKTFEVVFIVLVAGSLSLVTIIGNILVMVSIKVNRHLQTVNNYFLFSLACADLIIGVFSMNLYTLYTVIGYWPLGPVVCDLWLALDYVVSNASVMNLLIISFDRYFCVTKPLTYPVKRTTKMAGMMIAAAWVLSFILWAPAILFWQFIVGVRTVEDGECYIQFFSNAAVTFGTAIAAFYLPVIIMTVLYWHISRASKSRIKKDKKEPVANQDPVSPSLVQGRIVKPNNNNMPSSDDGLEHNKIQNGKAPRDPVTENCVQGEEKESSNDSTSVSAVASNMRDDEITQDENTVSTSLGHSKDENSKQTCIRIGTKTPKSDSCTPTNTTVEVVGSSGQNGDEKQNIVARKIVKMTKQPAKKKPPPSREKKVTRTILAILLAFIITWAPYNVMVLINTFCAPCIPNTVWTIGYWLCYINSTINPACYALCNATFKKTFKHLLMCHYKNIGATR
Protocol: In this assay, the functional potency of a test compound was determined by measuring the ability of the test compound to block oxotremorine-inhibition of forskolin-mediated cAMP accumulation in CHO-K1 cells expressing the hM2 receptor. cAMP assays were performed in a radioimmunoassay format using the Flashplate Adenylyl Cyclase Activation Assay System with ^125I-cAMP (NEN SMP004B, PerkinElmer Life Sciences Inc., Boston, Mass.), according to the manufacturer's instructions.
Cells were rinsed once with dPBS and lifted with Trypsin-EDTA solution (0.05% trypsin/0.53 mM EDTA) as described in the Cell Culture and Membrane Preparation section above. The detached cells were washed twice by centrifugation at 650×g for five minutes in 50 mLs dPBS. The cell pellet was then re-suspended in 10 mL dPBS, and the cells were counted with a Coulter ZI Dual Particle Counter (Beckman Coulter, Fullerton, Calif.). […]
To measure the ability of a test compound to block oxotremorine-inhibited AC activity, 25 μL forskolin and oxotremorine (25 μM and 5 μM final concentrations, respectively, diluted in dPBS) 25 μL diluted test compound, and 50 μL cells were added to remaining assay wells. […] Plates were sealed, incubated overnight at room temperature and counted the next morning on a PerkinElmer TopCount liquid scintillation counter (PerkinElmer Inc., Wellesley, Mass.). […]

T1 sequence (P20309 whole entry): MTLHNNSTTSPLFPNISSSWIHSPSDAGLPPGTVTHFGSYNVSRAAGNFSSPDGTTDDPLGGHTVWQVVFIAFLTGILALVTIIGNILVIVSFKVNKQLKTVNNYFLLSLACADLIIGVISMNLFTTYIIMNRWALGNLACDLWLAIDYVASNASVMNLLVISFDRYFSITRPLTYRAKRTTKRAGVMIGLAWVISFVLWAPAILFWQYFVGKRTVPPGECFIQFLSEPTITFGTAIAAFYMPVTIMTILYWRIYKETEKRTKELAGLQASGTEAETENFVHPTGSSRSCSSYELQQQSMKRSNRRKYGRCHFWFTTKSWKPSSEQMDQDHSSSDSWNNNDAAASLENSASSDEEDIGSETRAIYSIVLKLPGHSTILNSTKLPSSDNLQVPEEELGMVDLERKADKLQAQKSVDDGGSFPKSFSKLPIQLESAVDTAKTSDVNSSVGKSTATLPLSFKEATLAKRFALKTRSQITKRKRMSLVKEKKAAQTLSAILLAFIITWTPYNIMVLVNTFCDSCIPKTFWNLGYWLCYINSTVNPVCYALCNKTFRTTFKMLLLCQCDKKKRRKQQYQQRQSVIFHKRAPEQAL

## O=C(CCN1CCC(OC(=O)Nc2ccccc2-c2ccccc2)CC1)NCCCCCNCc1ccc(O)cc1 [compound of formula I, biphenyl-2-ylcarbamic acid 1-{2-[5-(4-hydroxybenzylamino)pentylcarbamoyl]ethyl}piperidin-4-yl ester]
[1]
  Ki: < 5 nM
[2]
  Ki: < 10 nM

From patent US20060205949A1, “Crystalline forms of a biphenyl compound” (THERAVANCE, INC., priority 2005, published 2006)
